Measurements reported in patent US9371265B2, “Compositions and methods related to inhibitors of JAK kinase” (EP PHARMA, INC., priority 2012, dated 2016).

Legend:
PRKCE = PRKCE (Homo sapiens, UniProt Q02156); assay: Kinase panel: PRKCE; assay type: biochemical; details: 10 μM EP009
Method: (§1) Achieving JAK3 selectivity remains a significant challenge in the development of new small molecules for the treatment of cancer and immune-derived diseases. As such, the inventors employed cell-based screening assays of small-molecule libraries based upon the chemical scaffold of the established JAK3 inhibitor NC1153 (Stepkowski et al., J Immunol. (2005), 175(7):4236-4246) EP009 (FIG. 2A) was selected as a lead compound due to improved intrinsic stability (>95% purity in various solvents at 37° C. for 24 hours; FIG. 3) and high-degree of JAK3 selectivity. To test JAK3 versus JAK2 specificity of EP009, the IL-2/JAK3-dependent Kit225, and IL-3/JAK2-dependent BaF/3 cell lines were used. Kit225 and BaF/3 cells growing in the presence of IL-2 or IL-3, respectively, were treated with ascending concentrations of EP009 for 12 hours and cellular JAK3 and JAK2 tyrosine phosphorylation levels detected by Western blot analysis (FIGS. 2B and 2C). Following densitometric analysis, EP009 was determined to dose-dependently reduce IL-2-mediated JAK3 tyrosine phosphorylation with a cellular 50% inhibitory concentration (IC50) between 10 and 20 μM (FIG. 2B). […] To globally evaluate specificity, the inhibitory activity of EP009 was measured against a panel of protein kinases distributed throughout the kinome using the scanEDGE profiling service (KINOMEscan). […]

KIT = KIT (Homo sapiens, UniProt P10721); assay: Kinase panel: KIT; assay type: biochemical; details: 10 μM EP009
Sequence of KIT (P10721 26-976): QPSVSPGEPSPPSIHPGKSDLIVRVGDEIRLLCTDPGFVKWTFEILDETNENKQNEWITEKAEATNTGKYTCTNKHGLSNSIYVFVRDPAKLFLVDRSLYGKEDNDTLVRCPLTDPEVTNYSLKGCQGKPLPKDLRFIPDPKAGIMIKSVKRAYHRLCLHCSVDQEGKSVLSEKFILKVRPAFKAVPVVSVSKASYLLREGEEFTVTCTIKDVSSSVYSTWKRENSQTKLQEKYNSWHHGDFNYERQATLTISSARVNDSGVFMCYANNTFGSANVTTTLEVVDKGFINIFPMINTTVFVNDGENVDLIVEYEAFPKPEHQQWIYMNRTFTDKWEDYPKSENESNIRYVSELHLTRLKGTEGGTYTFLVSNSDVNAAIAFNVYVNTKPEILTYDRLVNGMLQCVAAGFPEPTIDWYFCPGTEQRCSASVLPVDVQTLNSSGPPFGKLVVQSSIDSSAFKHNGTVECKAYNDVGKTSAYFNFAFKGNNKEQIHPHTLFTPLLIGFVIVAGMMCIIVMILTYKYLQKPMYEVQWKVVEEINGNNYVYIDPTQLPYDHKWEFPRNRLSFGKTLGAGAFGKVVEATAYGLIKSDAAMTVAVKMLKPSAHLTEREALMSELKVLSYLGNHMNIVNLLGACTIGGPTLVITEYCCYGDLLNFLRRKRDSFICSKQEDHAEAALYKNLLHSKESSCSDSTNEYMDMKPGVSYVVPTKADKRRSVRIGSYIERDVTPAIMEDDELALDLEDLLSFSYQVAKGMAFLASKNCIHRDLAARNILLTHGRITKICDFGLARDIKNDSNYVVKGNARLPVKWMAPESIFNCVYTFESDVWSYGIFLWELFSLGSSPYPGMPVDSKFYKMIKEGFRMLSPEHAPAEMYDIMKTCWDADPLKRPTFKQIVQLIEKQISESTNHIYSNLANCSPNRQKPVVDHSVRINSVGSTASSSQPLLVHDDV
Method: as §1

JNK1/2 = assay: Phospho-JNK1/2 in SU-DHL-1 cells (Luminex multiplex); assay type: cell-based, human; details: 24 hours, dose-dependent
Method: FIGS. 8A-8F. Effect of EP009 on ALCL cells is mediated through selective activation of ERK1/2 and JNK1/2 stress signaling pathways, and inhibition of p70 S6 kinase growth signaling pathways. SU-DHL-1 cells were treated with vehicle (PBS) or increasing amounts of EP009 (0-50 μM) for 24 hours. Cells were then lysed, clarified, and subjected to Luminex multiplex analysis to detect phosphorylated (A) ERK1/2, (B) JNK1/2, (C) p70 S6 kinase, (D) IκBα, (E) CREB, and (F) p38. Values represent mean fluorescence intensity (MFI) normalized to corresponding GAPDH MFI, while error bars represent the standard deviation (n=2). Representative data from two independent experiments are shown. Statistical significance was determined using Student's t-test. (*, p<0.05).
The MILLIPLEX MAP 8-plex Multi-Pathway Signaling Phosphoprotein kit (Millipore) was used to detect phosphorylated ERK1/2 (Thr185/Tyr187), STAT3 (Ser727), JNK1/2 (Thr183/Tyr185), p70 S6 kinase (Thr412), IκBα (Ser32), STAT5A/B (Tyr694/699), CREB (Ser133), and p38 (Thr180/Tyr182). The MILLIPLEX MAP 5-plex STAT Phosphoprotein kit (Millipore) was used to detect phosphorylated STAT1 (Tyr701), STAT2 (Tyr690), STAT3 (Tyr705), STAT5A/B (Tyr694/699), and STAT6 (Tyr641). The MILLIPLEX MAP Human Apoptosis 3-plex kit (Millipore) was used to detect cleaved PARP, cleaved Caspase 3, and total GAPDH for protein normalization.

PIK3CG = PIK3CG (Homo sapiens, UniProt P48736); assay: Kinase panel: PIK3CG; assay type: biochemical; details: 10 μM EP009
Sequence of PIK3CG (P48736 whole entry): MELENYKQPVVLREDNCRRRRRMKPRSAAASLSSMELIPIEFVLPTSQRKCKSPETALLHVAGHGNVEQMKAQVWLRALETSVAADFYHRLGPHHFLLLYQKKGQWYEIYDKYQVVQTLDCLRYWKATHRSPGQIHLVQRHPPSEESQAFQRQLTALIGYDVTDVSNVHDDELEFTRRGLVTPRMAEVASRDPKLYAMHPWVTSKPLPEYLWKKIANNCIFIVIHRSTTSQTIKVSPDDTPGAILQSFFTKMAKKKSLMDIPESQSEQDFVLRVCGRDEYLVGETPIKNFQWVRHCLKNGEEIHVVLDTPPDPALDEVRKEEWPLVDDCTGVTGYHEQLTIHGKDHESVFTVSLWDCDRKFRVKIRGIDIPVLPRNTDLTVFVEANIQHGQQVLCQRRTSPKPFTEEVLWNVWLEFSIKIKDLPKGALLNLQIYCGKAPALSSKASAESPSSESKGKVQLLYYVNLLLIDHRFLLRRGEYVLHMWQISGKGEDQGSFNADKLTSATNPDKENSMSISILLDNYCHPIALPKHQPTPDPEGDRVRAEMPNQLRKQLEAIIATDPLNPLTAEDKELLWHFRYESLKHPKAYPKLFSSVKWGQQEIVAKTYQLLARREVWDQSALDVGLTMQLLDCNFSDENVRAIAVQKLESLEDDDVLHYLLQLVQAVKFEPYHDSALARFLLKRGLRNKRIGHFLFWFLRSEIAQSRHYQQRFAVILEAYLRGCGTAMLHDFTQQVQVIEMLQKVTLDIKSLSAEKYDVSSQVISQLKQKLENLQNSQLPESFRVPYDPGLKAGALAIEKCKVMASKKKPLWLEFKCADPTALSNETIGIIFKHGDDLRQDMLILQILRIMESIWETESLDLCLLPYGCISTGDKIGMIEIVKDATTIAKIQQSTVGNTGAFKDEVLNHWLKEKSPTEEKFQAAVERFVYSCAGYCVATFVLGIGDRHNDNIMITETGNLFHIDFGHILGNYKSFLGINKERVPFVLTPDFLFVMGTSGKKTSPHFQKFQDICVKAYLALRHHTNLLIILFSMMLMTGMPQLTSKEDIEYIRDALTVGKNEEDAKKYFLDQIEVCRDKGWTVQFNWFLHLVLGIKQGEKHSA
Method: as §1

SU-DHL-1 cells = assay: SU-DHL-1 cell viability (MTS); assay type: cell-based; details: Homo sapiens; SU-DHL-1, 72 hours
Method: FIGS. 7A-7C. EP009 reduces ALCL cell viability through induction of caspase 3 mediated apoptosis. (A) SUP-M2, SU-DHL-1 or H2228 cells were cultured with increasing amounts of EP009 (0-10 μM) for 72 hours and cell viability measured with the MTS tetrazolium salt assay. Values represent mean absorbance (OD490-OD650 nm) normalized to vehicle (PBS) treated control cells, while error bars represent the standard deviation (n=3). (B) SU-DHL-1 cells were treated with vehicle (PBS) or increasing amounts of EP009 (0-50 μM) for 24 hours. Cells were then lysed, clarified, and subjected to Luminex multiplex analysis to detect activated caspase 3 and (C) cleaved PARP. Values represent MFI normalized to corresponding GAPDH MFI, while error bars represent the standard deviation (n=2). Representative data from three independent experiments are shown. Statistical significance was determined using Student's t-test. (*, p<0.05).
Cell viability was assessed with 3-(4,5-dimethylthiazol-2-yl)-5-(3-carboxymethoxyphenyl)-2-(4-sulfophenyl)-2H-tetrazolium salt (MTS) reagent (Promega) in triplicates according to the manufacturer's instructions. Three independent experiments were performed. The error bars represent standard deviation.

SRC = SRC (Homo sapiens, UniProt P12931); assay: Kinase panel: SRC; assay type: biochemical; details: 10 μM EP009
Sequence of SRC (P12931 whole entry): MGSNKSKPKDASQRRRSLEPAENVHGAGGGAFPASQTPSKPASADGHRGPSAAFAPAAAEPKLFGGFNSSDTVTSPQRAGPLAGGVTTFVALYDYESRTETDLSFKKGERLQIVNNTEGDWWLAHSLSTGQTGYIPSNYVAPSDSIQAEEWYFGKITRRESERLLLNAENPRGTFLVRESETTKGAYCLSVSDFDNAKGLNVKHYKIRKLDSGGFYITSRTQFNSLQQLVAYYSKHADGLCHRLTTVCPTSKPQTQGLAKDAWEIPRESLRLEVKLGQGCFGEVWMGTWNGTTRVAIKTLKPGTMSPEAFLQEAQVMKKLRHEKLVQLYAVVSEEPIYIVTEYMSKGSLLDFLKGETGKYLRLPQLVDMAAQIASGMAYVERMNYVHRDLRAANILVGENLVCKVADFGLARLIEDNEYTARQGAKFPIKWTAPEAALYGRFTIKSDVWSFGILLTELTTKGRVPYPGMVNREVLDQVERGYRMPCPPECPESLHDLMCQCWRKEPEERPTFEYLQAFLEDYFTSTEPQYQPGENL
Method: as §1

Sequence of PRKCE (Q02156 whole entry): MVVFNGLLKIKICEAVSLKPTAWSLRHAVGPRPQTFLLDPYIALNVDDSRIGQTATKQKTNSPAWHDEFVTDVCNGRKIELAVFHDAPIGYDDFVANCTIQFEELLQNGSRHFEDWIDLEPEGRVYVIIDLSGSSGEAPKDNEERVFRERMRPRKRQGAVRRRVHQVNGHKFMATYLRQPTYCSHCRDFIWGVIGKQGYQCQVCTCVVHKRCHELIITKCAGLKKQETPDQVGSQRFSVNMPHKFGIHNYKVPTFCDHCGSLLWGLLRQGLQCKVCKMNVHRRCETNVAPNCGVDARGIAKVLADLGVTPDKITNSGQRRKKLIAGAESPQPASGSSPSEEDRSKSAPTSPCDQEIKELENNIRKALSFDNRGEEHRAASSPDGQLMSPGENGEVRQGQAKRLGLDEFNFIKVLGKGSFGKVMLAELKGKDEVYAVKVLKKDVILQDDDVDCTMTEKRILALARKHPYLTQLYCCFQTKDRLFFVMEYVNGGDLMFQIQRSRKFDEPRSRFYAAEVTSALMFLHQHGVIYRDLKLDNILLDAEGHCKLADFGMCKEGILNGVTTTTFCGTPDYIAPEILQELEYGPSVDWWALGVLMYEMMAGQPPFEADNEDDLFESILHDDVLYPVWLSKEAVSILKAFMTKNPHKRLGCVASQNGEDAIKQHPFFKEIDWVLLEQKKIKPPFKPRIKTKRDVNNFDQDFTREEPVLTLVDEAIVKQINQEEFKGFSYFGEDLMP

Compound: C=C1CCCCCCCCCC(CO)C1=O (stereo not drawn) [EP009, 2-(Hydroxymethyl)-12-methylenecyclododecanone]
- Kinase Activity (% of Control) (PRKCE): 100 % of Control
- Kinase Activity (% of Control) (KIT): 100 % of Control
- JNK1/2 phosphorylation (JNK1/2): induced phosphorylation and activation
- Kinase Activity (% of Control) (PIK3CG): 75 % of Control
- IC50 (SU-DHL-1 cells): 5 µM
- Kinase Activity (% of Control) (SRC): 100 % of Control
